# Patent US9464129B2, “Neuronal exocytosis inhibiting peptides” (BCN PEPTIDES S.A., priority 2006, dated 2016)
# Tested on: primary cultures of rat hippocampus neurons
# Assay: release of [3H]-L-glutamate from primary cultures of rat hippocampus neurons (neuronal exocytosis)
# Format: cell-based
# Protocol: Assay of the Activity of the Irreversibly Chemically Modified Peptides Derived from the SNAP-25 Protein on the Neuronal Exocytosis of [^3H]-L-Glutamate
# The exocytosis of this neurotransmitter in neuronal cultures can be obtained by means of electric depolarization of the cells. The primary cultures of rat embryonic hippocampus are prepared using conventional methods [Blanes-Mira C., Merino J. M., Valera E., Fernández-Ballester G., Gutiérrez L. M., Viniegra S., Pérez-Payá E. and Ferrer-Montiel A. “Small peptides patterned after the N-terminus domain of SNAP25 inhibit SNARE complex assembly and regulated exocytosis” J. Neurochem. 88, 124-135] and are maintained in culture for 14 days in an incubator at 37° C. and 5% CO2. The cultures are incubated with [^3H]-L-glutamine in order to load them with [^3H]-L-glutamate for 3 h at 37° C. The excess [^3H]-L-glutamine is subsequent washed off and they are incubated with 0.1 mM of the peptides to be studied for 1 h at 37° C. The [^3H]-L-glutamate is released by means of depolarization with 75 mM KCl and 2 mM CaCl2 buffered in physiological buffer for 10 min at 37° C. The culture medium is collected and the amount of [^3H]-L-glutamate is quantified in a beta radiation meter. The results are normalized with regard to the release of [^3H]-L-glutamate in the absence of the peptide and corrected from the basal release in the absence of calcium.
substance,measurement,setting,value
"SEQ ID No.11: unmodified peptide derived from the amino acid sequence of the SNAP-25 protein, residues 12 to 17 (EEMQRR) (listed as Homo sapiens)",concentration required to reach inhibition levels comparable to those of the irreversibly modified peptides,"compared with modified peptides at 0.1 mM, in the range of 30 times greater",~3 mM
same,inhibition of the release of [3H]-L-glutamate,"peptide 0.1 mM, 1 h at 37° C., depolarization with 75 mM KCl and 2 mM CaCl2, FIG. 1",5%
